Results on ten compounds are retold here after ChEMBL document CHEMBL1201862, “PubChem BioAssay data set” (2004).

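These data come from cells grown in 96-well plates and exposed to compound for 48 hours at five concentrations. GI50: concentration for 50% inhibition of growth.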 Activity calls are given as the source filed them. No stated cut-off is given here; in the data, active = GI50 up to about 1.1 µM and inactive = higher. Residues, ends and D or L forms follow the SMILES beside them. *: point of attachment. Boc = CC(C)(C)OC(=O)*

Test systems include ACHN; CAKI-1; HCC 2998; HCT-116; HL-60; HOP-62; HOP-92; IGROV-1; K562; NCI-H522; NCI/ADR-RES; OVCAR-4; OVCAR-5; OVCAR-8; SF-268; SF-539; SN12C; SNB-19; SR; UO-31.
Test in all cases: DTP human tumour cell line panel, 48 h

For `O=C1O/C(=C\c2ccc(O)cc2)C(c2ccc(O)c(Cl)c2)=C1Br`, the GI50 in the experiment with ACHN was 13.2 µM (inactive); in the experiment on CAKI-1 it was 15.4 µM (inactive); with HCC 2998 it was 11.3 µM (inactive); in the experiment with HCT-116 it was 11.5 µM (inactive); in the experiment with HL-60, 13.9 µM (inactive); with HOP-62, 14.2 µM (inactive). The GI50 in the experiment on HOP-92 is 12.9 µM (inactive); in the experiment on IGROV-1 it was 12 µM (inactive); in the experiment on K562 it was 2.25 µM (inactive); in the experiment on NCI-H522, 6.76 µM (inactive); in the experiment with NCI/ADR-RES, 11.1 µM (inactive); in the experiment with OVCAR-4, 11.4 µM (inactive). Further, the GI50 with OVCAR-5 is 18.2 µM (inactive); in the experiment with OVCAR-8, 17.6 µM (inactive); in the experiment on SF-268, 13.7 µM (inactive); with SF-539 it was 12 µM (inactive); in the experiment on SN12C, 15.6 µM (inactive); in the experiment on SNB-19, 15.7 µM (inactive). Moreover, the GI50 in the experiment on SR is 3.94 µM (inactive); with UO-31, 14.6 µM (inactive).
Take `CCOc1cc(C=O)ccc1O` [ETHYL VANILLIN]: the GI50 in the experiment on ACHN, with CAKI-1, in the experiment on HCC 2998, with HCT-116, with HL-60 and with HOP-62 was > 100 µM (inactive) in each case. For the same compound, the GI50 with HOP-92, with IGROV-1, in the experiment on K562, in the experiment on NCI-H522, in the experiment with NCI/ADR-RES and with OVCAR-4 was > 100 µM (inactive) throughout. Further, the GI50 with OVCAR-5, in the experiment with OVCAR-8, in the experiment on SF-268, with SF-539, with SN12C and in the experiment with SNB-19 was > 100 µM (inactive) each time. For the same compound, the GI50 was 76 µM (inactive) with SR and > 100 µM (inactive) in the experiment on UO-31.
Turning to `CC1=NN(C(=O)c2ccccc2O)C(=O)/C1=C/c1ccc(O)cc1`, the GI50 in the experiment on ACHN is 0.204 µM (active); in the experiment on CAKI-1, 0.662 µM (active); with HCC 2998, 3.22 µM (inactive); in the experiment on HCT-116, 0.209 µM (active); with HL-60 it was 1.02 µM (active); with HOP-62, 0.662 µM (active). The GI50 with HOP-92 is 0.218 µM (active); in the experiment with IGROV-1 it was 0.14 µM (active); in the experiment on K562 it was 0.0667 µM (active); in the experiment on NCI-H522, 0.807 µM (active); with NCI/ADR-RES, 0.519 µM (active); in the experiment on OVCAR-4, 1.48 µM (inactive). The GI50 was 7.96 µM (inactive) with OVCAR-5; 0.358 µM (active) with OVCAR-8; 0.265 µM (active) with SF-268; 0.188 µM (active) with SF-539; 1.62 µM (inactive) in the experiment with SN12C; 0.363 µM (active) in the experiment with SNB-19. Moreover, the GI50 in the experiment on SR was 0.485 µM (active); in the experiment on UO-31, 0.153 µM (active).
Take `COC(=O)C1OC2(CCCC3CC32)O[C@H]1C(=O)OC` (some centres undefined): the GI50 in the experiment with ACHN, with CAKI-1, in the experiment on HCC 2998, in the experiment with HCT-116, in the experiment with HL-60 and in the experiment on HOP-62 was > 100 µM (inactive) in each case. The GI50 in the experiment with HOP-92 was 68.7 µM (inactive); in the experiment on IGROV-1, > 100 µM (inactive); in the experiment with K562 it was > 100 µM (inactive); in the experiment on NCI-H522 it was > 100 µM (inactive); in the experiment with NCI/ADR-RES it was > 100 µM (inactive); with OVCAR-4, > 100 µM (inactive). Moreover, the GI50 with OVCAR-5, with OVCAR-8, in the experiment with SF-268, with SF-539, with SN12C and in the experiment on SNB-19 was > 100 µM (inactive) in each case. Also, the GI50 with SR and in the experiment on UO-31 was > 100 µM (inactive) each time.
As to `C/C(=N\NC(=O)c1ccncc1)c1sc(-n2nc(-c3ccccc3)cc2-c2ccccc2)nc1C`, the GI50 in the experiment on ACHN was > 31.6 µM (inactive); in the experiment on CAKI-1, 98.4 µM (inactive); with HCC 2998 it was > 31.6 µM (inactive); with HCT-116 it was > 31.6 µM (inactive); in the experiment with HL-60, 21.5 µM (inactive); with HOP-62, > 31.6 µM (inactive). Further, the GI50 is > 31.6 µM (inactive) with HOP-92; > 33.7 µM (inactive) with IGROV-1; 59.6 µM (inactive) with K562; > 35.7 µM (inactive) with NCI-H522; > 100 µM (inactive) in the experiment on NCI/ADR-RES; > 31.6 µM (inactive) with OVCAR-4. For the same compound, the GI50 with OVCAR-5 is > 31.6 µM (inactive); with OVCAR-8, > 100 µM (inactive); in the experiment with SF-268 it was > 100 µM (inactive); in the experiment with SF-539, > 31.6 µM (inactive); with SN12C, > 100 µM (inactive); in the experiment on SNB-19 it was > 31.6 µM (inactive). For the same compound, the GI50 in the experiment on SR is 25.5 µM (inactive); in the experiment on UO-31 it was > 31.6 µM (inactive).
Take `CC(C)(C)OC(=O)NC(CSSCC(NC(=O)OC(C)(C)C)C(=O)O)C(=O)O` (centres undefined): the GI50 with ACHN, in the experiment on CAKI-1, with HCC 2998, in the experiment with HCT-116, in the experiment with HL-60 and in the experiment on HOP-62 was > 100 µM (inactive) throughout. Also, the GI50 in the experiment on HOP-92, in the experiment on IGROV-1, in the experiment on K562, in the experiment with NCI-H522, with NCI/ADR-RES and in the experiment on OVCAR-4 was > 100 µM (inactive) each time. For the same compound, the GI50 in the experiment with OVCAR-5, with OVCAR-8, with SF-268, with SF-539, in the experiment on SN12C and with SNB-19 was > 100 µM (inactive) in each case. Also, the GI50 in the experiment with SR and in the experiment with UO-31 was > 100 µM (inactive) in each case.
Turning to `CC(C)C1(O)C(=O)N(c2c(F)c(F)c(F)c(F)c2F)C(=S)N1CCSc1ccccc1` (centres undefined), the GI50 is 17.5 µM (inactive) with ACHN; 12.2 µM (inactive) in the experiment with CAKI-1; 20.6 µM (inactive) with HCC 2998; 18.2 µM (inactive) in the experiment with HCT-116; 14.3 µM (inactive) in the experiment with HL-60; 18.5 µM (inactive) in the experiment on HOP-62. For the same compound, the GI50 in the experiment with HOP-92 was 9.53 µM (inactive); with IGROV-1, 16.4 µM (inactive); in the experiment on K562, 13 µM (inactive); in the experiment with NCI-H522, 16.6 µM (inactive); in the experiment on NCI/ADR-RES, 16.3 µM (inactive); in the experiment with OVCAR-4 it was 15.2 µM (inactive). In addition, the GI50 in the experiment with OVCAR-5 is 18.7 µM (inactive); in the experiment with OVCAR-8 it was 19 µM (inactive); in the experiment on SF-268, 18.4 µM (inactive); with SF-539, 20.1 µM (inactive); with SN12C it was 15.3 µM (inactive); with SNB-19 it was 17.8 µM (inactive). Besides, the GI50 with SR is 16.2 µM (inactive); in the experiment on UO-31, 15.5 µM (inactive).
With `S=c1c2nc[nH]c2ncn1CCSC1=NC=NC2=NC=NC21` (centres undefined), the GI50 in the experiment on ACHN was > 100 µM (inactive); with CAKI-1, > 100 µM (inactive); in the experiment on HCC 2998, > 100 µM (inactive); in the experiment on HCT-116 it was > 100 µM (inactive); in the experiment with HL-60 it was > 92 µM (inactive); in the experiment on HOP-62, 66.1 µM (inactive). The GI50 in the experiment with HOP-92 is > 80 µM (inactive); in the experiment on IGROV-1, > 100 µM (inactive); with K562, 30.6 µM (inactive); with NCI-H522 it was > 73.6 µM (inactive); with NCI/ADR-RES, > 100 µM (inactive); with OVCAR-4, > 87.3 µM (inactive). The GI50 was > 100 µM (inactive) in the experiment with OVCAR-5; > 100 µM (inactive) in the experiment on OVCAR-8; > 100 µM (inactive) in the experiment on SF-268; > 84.1 µM (inactive) in the experiment with SF-539; > 100 µM (inactive) with SN12C; > 100 µM (inactive) with SNB-19. Besides, the figures for the GI50 with SR and with UO-31 were 50.1 µM (inactive) and > 100 µM (inactive), respectively.
In the case of `CC(NC(=O)C(NC(=O)OC(C)(C)C)C(C)C)C(=O)N1CCCC1C(=O)NCC(=O)NC(C(=O)NCC(=O)O)C(C)C` (centres undefined) (Boc-VAPGVG-OH; configuration not given here), the GI50 with ACHN is > 100 µM (inactive); with CAKI-1, > 100 µM (inactive); with HCC 2998 it was 77.3 µM (inactive); in the experiment with HCT-116 it was > 100 µM (inactive); in the experiment on HL-60 it was > 100 µM (inactive); with HOP-62, > 100 µM (inactive). The GI50 is 29.2 µM (inactive) in the experiment on HOP-92; > 100 µM (inactive) in the experiment on IGROV-1; > 100 µM (inactive) in the experiment on K562; > 100 µM (inactive) in the experiment on NCI-H522; > 100 µM (inactive) in the experiment with NCI/ADR-RES; > 100 µM (inactive) in the experiment with OVCAR-4. Also, the GI50 in the experiment with OVCAR-5, with OVCAR-8, with SF-268, in the experiment with SF-539, with SN12C and in the experiment with SNB-19 was > 100 µM (inactive) each time. Also, the GI50 with SR and in the experiment on UO-31 was > 100 µM (inactive) in each case.
For `O=c1sc(Nc2ccc3ccccc3c2Cl)nc2ccccc12`, the GI50 with ACHN is > 100 µM (inactive); with CAKI-1 it was 35.9 µM (inactive); in the experiment with HCC 2998, > 100 µM (inactive); in the experiment on HCT-116, > 100 µM (inactive); in the experiment with HL-60, 26.5 µM (inactive); with HOP-62, > 100 µM (inactive). Also, the GI50 in the experiment on HOP-92 was 35.9 µM (inactive); with IGROV-1, > 100 µM (inactive); in the experiment with K562 it was > 100 µM (inactive); in the experiment on NCI-H522 it was > 100 µM (inactive); with NCI/ADR-RES, > 100 µM (inactive); in the experiment on OVCAR-4, > 100 µM (inactive). Besides, the GI50 was > 100 µM (inactive) in the experiment on OVCAR-5; > 100 µM (inactive) in the experiment with SF-268; 73.8 µM (inactive) in the experiment with SF-539; > 100 µM (inactive) with SN12C; > 100 µM (inactive) in the experiment with SNB-19; 7.08 µM (inactive) in the experiment with SR. Moreover, the GI50 in the experiment with UO-31 was > 100 µM (inactive).

One may read the GI50 as the concentration giving 50% growth inhibition.
